One test relates to Plasmodium falciparum K1. As to the kind of experiment: Growth inhibition of Plasmodium falciparum K1 (chloroquine-resistant) in vitro, [G-3H]-hypoxanthin incorporation. Type of test: cell-based, Plasmodium falciparum (strain K1). The note with it: for IC50: Plasmodium falciparum, K1, 72 h, read-out: IC50 for P. falciparum K1; for Resistance index: ratio of the IC50 for K1 and the IC50 for NF54. A digest of the protocol: (§1)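 Asynchronous intraerythrocytic cultures in human A+ erythrocytes (0.7% parasitemia, 2.5% suspension) in RPMI 1640 with HEPES, NaHCO3 and human serum, exposed to compound titrated over 6-7 steps for 72 h at 37° C, 3% O2. Growth by [G-3H]-hypoxanthin incorporation against untreated controls; IC50 by logit regression.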

The test system of test [1] is Plasmodium falciparum strain NF54. As to the kind of experiment: Growth inhibition of Plasmodium falciparum NF54 (chloroquine-sensitive) in vitro, [G-3H]-hypoxanthin incorporation. The test is classed as cell-based. The note with it: chloroquine-sensitive strain NF54, 72 h, read-out: IC50 for P. falciparum NF54. In a few lines:
as §1

The subject of the next test is Plasmodium berghei. As to the kind of experiment: animal or person. The test is classed as in vivo, Plasmodium berghei (strain ANKA) in mice. The note with it: Plasmodium berghei, mice, blood smears 48 h after treatment. A digest of the protocol:
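Male albino mice (~25 g) infected i.v. on D0 with P. berghei ANKA (0.2 ml of 10^8 parasitized erythrocytes/ml); single s.c. and p.o. dose 24 h post-infection, 10 mg/kg screen then titration.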

Where [2] appears, read: po, single peroral dose of 10 mg/kg, read-out: Growth inhibition in % after po administration (GI%, percentage reduction of the parasitemia).
Where [3] appears, read: sc, single subcutaneous dose of 10 mg/kg, read-out: Growth inhibition in % after sc administration (GI%, percentage reduction of the parasitemia).

The structures appear in SMILES notation. Where two headings read alike, the source gives them in different places.

For the compound `Cl.Cl.FC(F)(F)c1ccc(CN[C@H]2CCCC[C@@H]2Nc2ccnc3cc(Cl)ccc23)c(C(F)(F)F)c1` [Example 64, (1S,2S)-N1-(7-Chloro-quinolin-4-yl)-N2-(2,4-bis-trifluoromethyl-benzyl)-cyclohexane-1,2-diamine dihydrochloride], the IC50 – broadly, the concentration that gives 50% inhibition – with Plasmodium falciparum K1 came out at 0.0823 mg/L; in test [1], 0.0357 mg/L. For the same compound, the Resistance index in the test with Plasmodium falciparum K1 is listed as 2.3. Besides, the inhibition in vivo at 10 mg/kg is 87% in the test on Plasmodium berghei (setting [2]) and 66% in the test with Plasmodium berghei (setting [3]).
The like results for `CN(C)c1ccc(CN[C@H]2CCCC[C@@H]2Nc2ccnc3cc(Cl)ccc23)cc1.Cl.Cl` [Example 66, (1S,2S)-N1-(7-Chloro-quinolin-4-yl)-N2-(4-dimethylamino-benzyl)-cyclohexane-1,2-diamine dihydrochloride] were, in that order, 0.0105 mg/L, 0.0056 mg/L, 1.9, 99.9% and 99.6%.
The like results for `Cl.Cl.N#Cc1ccc(CN[C@H]2CCCC[C@@H]2Nc2ccnc3cc(Cl)ccc23)cc1` [Example 67, (1S,2S)-N1-(7-Chloro-quinolin-4-yl)-N2-(4-cyano-benzyl)-cyclohexane-1,2-diamine dihydrochloride] were, in that order, 0.023 mg/L, 0.0091 mg/L, 2.5, 99% and 99%.
The like results for `CN(C)c1ccc(CN[C@H]2CC[C@@H](Nc3ccnc4cc(Cl)ccc34)CC2)cc1.Cl.Cl.Cl` [Example 69, cis-N1-(7-Chloro-quinolin-4-yl)-N4-(4-dimethylamino-benzyl)-cyclohexane-1,4-diamine trihydrochloride] were, in that order, 0.0046 mg/L, 0.0037 mg/L, 1.2, 100% and 100%.
Turning to `Cl.Cl.Clc1ccc2c(N[C@H]3CC[C@@H](NCc4ccccc4)CC3)ccnc2c1` [Example 70, cis-N1-(7-Chloro-quinolin-4-yl)-N4-(benzyl)-cyclohexane-1,4-diamine dihydrochloride], the IC50 in the test on Plasmodium falciparum K1 came out at 0.0066 mg/L; in test [1], 0.0038 mg/L. The Resistance index with Plasmodium falciparum K1 was found to be 1.7. For the same compound, the inhibition in vivo at 10 mg/kg with Plasmodium berghei (setting [2]) and in the test on Plasmodium berghei (setting [3]) was 99.9% in each case.
As for `Cl.Cl.Clc1cccc(CN[C@H]2CC[C@@H](Nc3ccnc4cc(Cl)ccc34)CC2)c1` [Example 71, cis-N1-(7-Chloro-quinolin-4-yl)-N4-(3-chloro-benzyl)-cyclohexane-1,4-diamine dihydrochloride], the values for the concentration for half-maximal inhibition (IC50) (in the test on Plasmodium falciparum K1; in test [1]) were 0.0093 mg/L and 0.0071 mg/L, respectively. In addition, the Resistance index with Plasmodium falciparum K1 was determined as 1.3. Moreover, the inhibition in vivo at 10 mg/kg in the test with Plasmodium berghei (setting [2]) came out at 99.8%; in the test on Plasmodium berghei (setting [3]) it was 99.9%.
The corresponding values for `Cl.Cl.Clc1ccc(CN[C@H]2CC[C@@H](Nc3ccnc4cc(Cl)ccc34)CC2)cc1` [Example 72, cis-N1-(7-Chloro-quinolin-4-yl)-N4-(4-chloro-benzyl)-cyclohexane-1,4-diamine dihydrochloride] are 0.0112 mg/L, 0.0116 mg/L, 1.0, 99.5% and 99.9%.
Take `Cl.Cl.Clc1ccc(CN[C@H]2CC[C@@H](Nc3ccnc4cc(Cl)ccc34)CC2)c(Cl)c1` [Example 73, cis-N1-(7-Chloro-quinolin-4-yl)-N4-(2,4-dichloro-benzyl)-cyclohexane-1,4-diamine dihydrochloride]: the half-maximal inhibitory concentration (IC50) in the test with Plasmodium falciparum K1 came to 0.019 mg/L; in test [1] it was 0.015 mg/L. Also, in the test on Plasmodium falciparum K1, the Resistance index was 1.3. Besides, the inhibition in vivo at 10 mg/kg in the test on Plasmodium berghei (setting [2]) was found to be 23%; in the test on Plasmodium berghei (setting [3]), 96%.
The like results for `Cl.Cl.Clc1ccc2c(N[C@H]3CC[C@@H](NCc4ccc(Cl)c(Cl)c4)CC3)ccnc2c1` [Example 74, cis-N1-(7-Chloro-quinolin-4-yl)-N4-(3,4-dichloro-benzyl)-cyclohexane-1,4-diamine dihydrochloride] were, in that order, 0.0145 mg/L, 0.0233 mg/L, 0.6, 83% and 84%.
The corresponding values for `Cl.Cl.Clc1cc(Cl)cc(CN[C@H]2CC[C@@H](Nc3ccnc4cc(Cl)ccc34)CC2)c1` [Example 75, cis-N1-(7-Chloro-quinolin-4-yl)-N4-(3,5-dichloro-benzyl)-cyclohexane-1,4-diamine dihydrochloride] are 0.018 mg/L, 0.025 mg/L, 0.7, 99.8% and 99.7%.
The like results for `Cl.Cl.Fc1cc(CN[C@H]2CC[C@@H](Nc3ccnc4cc(Cl)ccc34)CC2)ccc1Cl` [Example 76, cis-N1-(7-Chloro-quinolin-4-yl)-N4-(4-chloro-3-fluoro-benzyl)-cyclohexane-1,4-diamine dihydrochloride] were, in that order, 0.0061 mg/L, 0.0072 mg/L, 0.8, 96% and 96%.
Take `Cl.Cl.FC(F)(F)c1cc(CN[C@H]2CC[C@@H](Nc3ccnc4cc(Cl)ccc34)CC2)cc(C(F)(F)F)c1` [Example 77, cis-N1-(7-Chloro-quinolin-4-yl)-N4-(3,5-bis-trifluoromethyl-benzyl)-cyclohexane-1,4-diamine dihydrochloride]: the half-maximal inhibitory concentration (IC50) stood at 0.0632 mg/L in the test with Plasmodium falciparum K1 and 0.0966 mg/L in test [1]. In the test with Plasmodium falciparum K1, the Resistance index worked out at 0.7. For the same compound, the inhibition in vivo at 10 mg/kg is 99% in the test with Plasmodium berghei (setting [2]) and 98% in the test with Plasmodium berghei (setting [3]).
Turning to `COc1ccc(CN[C@H]2CC[C@@H](Nc3ccnc4cc(Cl)ccc34)CC2)c(O)c1.Cl.Cl` [Example 79, cis-N1-(7-Chloro-quinolin-4-yl)-N4-(2-hydroxy-4-methoxy-benzyl)-cyclohexane-1,4-diamine dihydrochloride], the half-maximal inhibitory concentration (IC50) worked out at 0.0077 mg/L in the test on Plasmodium falciparum K1 and 0.0041 mg/L in test [1]. Also, the Resistance index in the test with Plasmodium falciparum K1 is recorded as 1.9. For the same compound, the results for the inhibition in vivo at 10 mg/kg in the test with Plasmodium berghei (setting [2]) and with Plasmodium berghei (setting [3]) were 99.9% and 100%, respectively.
The like results for `COc1ccc(O)c(CN[C@H]2CC[C@@H](Nc3ccnc4cc(Cl)ccc34)CC2)c1.Cl.Cl` [Example 80, cis-N1-(7-Chloro-quinolin-4-yl)-N4-(2-hydroxy-5-methoxy-benzyl)-cyclohexane-1,4-diamine dihydrochloride] were, in that order, 0.0184 mg/L, 0.0089 mg/L, 2.1, 99.9% and 100%.
The like results for `COc1ccc(CN[C@H]2CC[C@@H](Nc3ccnc4cc(Cl)ccc34)CC2)c(OC)c1.Cl.Cl` [Example 81, cis-N1-(7-Chloro-quinolin-4-yl)-N4-(2,4-dimethoxy-benzyl)-cyclohexane-1,4-diamine dihydrochloride] were, in that order, 0.0097 mg/L, 0.0043 mg/L, 2.3, 100% and 100%.

(Values after US5948791A, “Quinoline derivatives for treating malaria” (Hoffmann-La Roche Inc., priority 1995, dated 1999).)
